The values that follow come from patent US8927563B2, “Kinase inhibitor” (Respivert Limited, priority 2013, dated 2015).

As usually defined, the Kd is the equilibrium constant for the complex coming apart. As usually defined, the IC50 is the concentration that inhibits the measured activity by half. Read a low IC50 as higher potency. Broadly, the inhibition is the change of the read-out against control, counted positive when it falls.

The target in one data set is Lck (Homo sapiens (Human), UniProt P06239). Nature of the data set: KINOMEscan dissociation constant, Lck. The format is binding. On the procedure:
Kinase enzyme binding activities of compounds disclosed herein may be determined using a proprietary assay which measures active site-directed competition binding to an immobilized ligand (Fabian, M. A. et al., Nature Biotechnol., 2005, 23:329-336). These assays may be conducted by DiscoverX (formerly Ambit; San Diego, Calif.). The percentage inhibition produced by incubation with a test compound may be calculated relative to the non-inhibited control.

The target in a further data set is p38 MAPKα (Homo sapiens (Human), UniProt Q16539). The experiment in a line: p38 MAPKα enzyme inhibition (Method 2), Z-LYTE FRET. The format is biochemical. On the procedure:
(§1) The enzyme inhibitory activities of compounds disclosed herein are determined by FRET using synthetic peptides labelled with both donor and acceptor fluorophores (Z-LYTE, Invitrogen Ltd., Paisley, UK).
The inhibitory activities of test compounds against the p38 MAPKα isoform (MAPK14: Invitrogen) are evaluated indirectly by determining the level of activation/phosphorylation of the down-stream molecule, MAPKAP-K2. The p38 MAPKα protein (80 ng/mL, 2.5 μL) is mixed with the test compound (2.5 μL of either 4 μg/mL, 0.4 μg/mL, […] or 0.004 μg/mL) for 2 hr at RT. […] The mixture is incubated for 1 hr at RT. Development reagent (protease, 5 μL) is added for 1 hr prior to detection in a fluorescence microplate reader (Varioskan® Flash, ThermoFisher Scientific). […]
(§2) In all cases, the site-specific protease cleaves non-phosphorylated peptide only and eliminates the FRET signal. Phosphorylation levels of each reaction are calculated using the ratio of coumarin emission (donor) over fluorescein emission (acceptor), for which high ratios indicate high phosphorylation and low ratios indicate low phosphorylation levels.

The next data set concerns the target Syk (Homo sapiens (Human), UniProt P43405). Nature of the data set: Syk enzyme inhibition, Z-LYTE FRET. The format is biochemical. On the procedure:
as §1
The inhibitory activities of the compound of the invention against c-Src and Syk enzymes (Invitrogen) are evaluated in a similar fashion to that described hereinabove. The relevant enzyme (3000 ng/mL or 2000 ng/mL respectively, 2.5 μL) is incubated with the test compound (either 1 μg/mL, 0.1 μg/mL, 0.01 μg/mL, or 0.001 μg/mL, 2.5 μL each) for 2 hr at RT. The FRET peptides (8 μM, 2.5 μL) and appropriate ATP solutions (2.5 μL, 800 μM for c-Src, and 60 μM ATP for Syk) are then added to the enzymes/compound mixtures and the mixture incubated for 1 hr. Development reagent (protease, 5 μL) is added for 1 hr prior to detection in a fluorescence microplate reader (Varioskan® Flash, ThermoFisher Scientific).
as §2

The subject of data set [1] is intestinal mucosa biopsies from ulcerative colitis patients. The experiment in a line: Human biopsy assay, cytokine release from biopsies of UC patients. In kind it is cell-based. Particulars: 1 μg/mL, 24 hours; relative to DMSO control 100%. On the procedure:
Intestinal mucosa biopsies are obtained from the inflamed regions of the colons of IBD patients. The biopsy material is cut into small pieces (2-3 mm) and placed on steel grids in an organ culture chamber at 37° C. in a 5% CO2/95% O2 atmosphere in serum-free media. DMSO control or test compound at the desired concentration are added to the tissue and incubated for 24 hr in the organ culture chamber. The supernatant is harvested for determination of IL-6, IL-8, IL-1β and TNFα levels by R&D ELISA.

In the next data set the test system is TNBS-induced colitis. The experiment in a line: TNBS-induced colitis in mice. The format is in vivo. On the procedure: Non-fasted, 10-12 week old, male BDF1 mice are dosed by oral gavage twice daily with either vehicle (5 mL/kg), reference item (Budesonide 2.5 mg/kg) or test compound (1 or 5 mg/kg) one day before (Day −1) stimulation of the inflammatory response by treatment with 2,4,6-trinitrobenzenesulphonic acid (TNBS) (15 mg/mL in 50% ethanol/50% saline). On Day 0 of the study, TNBS (200 μL) is administered intra-colonically via a plastic catheter with BID dosing of the vehicle, reference or test compound continuing for 2 or 4 days. During the study, animals are weighed every day and stool observations are made and recorded as a score, based on stool consistency. At the time of sacrifice on Day 2 (or Day 4), the large intestine is removed and the length and weight recorded. Sections of the colon are taken for histopathology scoring to determine disease severity.

Data set [2] can be described thus: Pharmacokinetics after oral administration to rats. In kind it is in vivo. As to conditions: oral 5 mg/kg, vehicle B. On the procedure: Studies were conducted by Sai Life Sciences (Hinjewadi, Pune, India) to investigate the plasma pharmacokinetics and total colon tissue distribution of Compound I. In particular, pharmacokinetic studies were carried out in: • male C57BL/6 mice, following a single oral administration; and • male Wistar rats following a single intravenous or oral administration.

The target of another data set is hERG (Homo sapiens (Human), UniProt Q12809). Nature of the data set: hERG inhibition, IonWorks patch clamp electrophysiology. The format is cell-based. Particulars: human, 3 μM. On the procedure:
(§3) Compound I was tested for inhibition of the human ether a go-go (hERG) channel using IonWorks™ patch clamp electrophysiology at Essen Bioscience (Welwyn Garden City, England).
(The hERG channel carries a current that helps repolarise heart muscle cells.)

Data set [3] concerns the target human ether a go-go (hERG) channel (Homo sapiens (Human), UniProt Q12809). The data set is described as above. In kind it is cell-based. On the procedure: as §3
In data set [4] the test system is rat, Cynomolgus macaque or human hepatocytes. Nature of the data set: Analysis of metabolites in hepatocyte incubations. The format is in vitro ADME. As to conditions: 10 μM, 0, 60 and 90 minutes. On the procedure:
Studies were conducted by BioFocus (Saffron Walden, UK) to determine the metabolic fate of Compound I following incubation with rat, Cynomolgus macaque or human hepatocytes.
Separate incubations (n=3) of Compound I (10 μM initial concentration) or DMSO control, were performed with cryopreserved hepatocytes from each species (0.5 million cell/mL) at 37° C. for 0, 60 and 90 minutes before termination of reactions and compound extraction with acetonitrile. Sample replicates were pooled prior to analysis.
Potential metabolites were identified using time-of-flight (TOF) and triple quadruple (TQ) mass spectrometers.

[5] abbreviates: 5 mg/kg orally BID, 2 days, SMEDDS vehicle.

Sequence of hERG (Q12809 whole entry): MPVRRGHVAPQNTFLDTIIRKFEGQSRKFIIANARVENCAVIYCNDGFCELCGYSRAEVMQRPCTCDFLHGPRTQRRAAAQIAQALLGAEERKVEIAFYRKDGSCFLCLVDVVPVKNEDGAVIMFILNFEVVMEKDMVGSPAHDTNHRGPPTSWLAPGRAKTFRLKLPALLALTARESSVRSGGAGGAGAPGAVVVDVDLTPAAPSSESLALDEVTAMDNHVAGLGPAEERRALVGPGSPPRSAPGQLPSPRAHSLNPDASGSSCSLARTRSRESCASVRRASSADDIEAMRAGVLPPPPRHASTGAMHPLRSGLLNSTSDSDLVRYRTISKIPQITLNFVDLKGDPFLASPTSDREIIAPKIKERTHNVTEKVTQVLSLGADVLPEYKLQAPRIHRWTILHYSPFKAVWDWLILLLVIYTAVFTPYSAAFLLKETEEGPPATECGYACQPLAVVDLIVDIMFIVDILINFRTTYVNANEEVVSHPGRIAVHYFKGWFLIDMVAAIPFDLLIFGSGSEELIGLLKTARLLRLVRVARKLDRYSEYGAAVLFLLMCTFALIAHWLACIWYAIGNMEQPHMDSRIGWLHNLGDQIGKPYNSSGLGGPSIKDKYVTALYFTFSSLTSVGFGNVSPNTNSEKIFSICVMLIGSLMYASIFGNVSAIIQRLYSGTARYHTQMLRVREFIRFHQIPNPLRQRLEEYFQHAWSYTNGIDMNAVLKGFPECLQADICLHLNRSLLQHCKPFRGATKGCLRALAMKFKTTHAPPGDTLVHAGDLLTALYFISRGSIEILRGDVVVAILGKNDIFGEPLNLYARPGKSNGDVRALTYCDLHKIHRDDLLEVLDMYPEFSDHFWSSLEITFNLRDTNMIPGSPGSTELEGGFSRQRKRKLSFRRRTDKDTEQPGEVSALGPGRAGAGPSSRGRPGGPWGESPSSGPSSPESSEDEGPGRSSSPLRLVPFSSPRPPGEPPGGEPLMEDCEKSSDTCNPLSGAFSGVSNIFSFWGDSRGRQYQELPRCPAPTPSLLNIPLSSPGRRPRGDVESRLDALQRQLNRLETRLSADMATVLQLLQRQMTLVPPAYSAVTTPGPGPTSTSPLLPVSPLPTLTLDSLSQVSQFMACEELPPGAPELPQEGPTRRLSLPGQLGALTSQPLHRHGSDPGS
Sequence of human ether a go-go (hERG) channel (Q12809 whole entry): as above
Sequence of p38 MAPKα (Q16539 whole entry, looked up): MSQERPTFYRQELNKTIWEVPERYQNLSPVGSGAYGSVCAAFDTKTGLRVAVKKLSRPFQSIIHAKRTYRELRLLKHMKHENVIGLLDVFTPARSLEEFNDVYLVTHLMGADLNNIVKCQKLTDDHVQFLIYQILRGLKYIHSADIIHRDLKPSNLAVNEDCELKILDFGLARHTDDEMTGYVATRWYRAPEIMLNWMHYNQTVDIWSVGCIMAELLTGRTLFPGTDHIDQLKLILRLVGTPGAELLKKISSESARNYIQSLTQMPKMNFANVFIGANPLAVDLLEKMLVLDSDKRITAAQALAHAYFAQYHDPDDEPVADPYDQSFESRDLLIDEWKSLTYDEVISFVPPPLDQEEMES
Sequence of Lck (P06239 whole entry): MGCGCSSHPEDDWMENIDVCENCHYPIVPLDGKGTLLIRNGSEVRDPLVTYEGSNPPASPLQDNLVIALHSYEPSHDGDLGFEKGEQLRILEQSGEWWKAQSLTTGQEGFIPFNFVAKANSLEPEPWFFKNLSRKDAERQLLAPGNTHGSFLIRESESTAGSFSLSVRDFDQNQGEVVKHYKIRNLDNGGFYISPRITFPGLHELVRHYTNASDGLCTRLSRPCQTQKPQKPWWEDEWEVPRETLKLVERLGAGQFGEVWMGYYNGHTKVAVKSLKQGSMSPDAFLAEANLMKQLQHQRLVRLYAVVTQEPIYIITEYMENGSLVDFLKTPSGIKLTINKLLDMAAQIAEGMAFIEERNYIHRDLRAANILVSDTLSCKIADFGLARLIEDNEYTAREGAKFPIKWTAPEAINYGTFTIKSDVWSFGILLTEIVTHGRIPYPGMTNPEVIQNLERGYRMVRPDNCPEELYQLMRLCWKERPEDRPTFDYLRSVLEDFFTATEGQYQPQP

Molecule `C#Cc1cc(Nc2nccc(Oc3ccc(NC(=O)Nc4cc(C(C)(C)C)cc(NS(C)(=O)=O)c4OC)c4ccccc34)n2)cc(C(=O)NCCOCCOCCOC)c1` [Compound I, 3-((4-((4-(3-(5-(tert-Butyl)-2-methoxy-3-(methylsulfonamido)phenyl)ureido)naphthalen-1-yl)oxy)pyrimidin-2-yl)amino)-5-ethynyl-N-(2-(2-(2-methoxyethoxy)ethoxy)ethyl)benzamide] registered a Kd at Lck of 4.1 nM. The molecule also yielded an IC50 against p38 MAPKα of 224 nM. This molecule registered an IC50 on Syk of 591 nM. In addition, in [1], the “IL-1β release from biopsies of UC patients” value turned out to be 5 ± 8%, the “IL-6 release from biopsies of UC patients” value worked out at 17 ± 23% and the “IL-8 release from biopsies of UC patients” value stood at 9 ± 15%. In the data set with TNBS-induced colitis (setting [5]), this molecule gave an LP inflammation of 3.8 ± 0.4 and a Ulcer grade of 3.6 ± 0.5. Further, in the data set with TNBS-induced colitis (dosed orally at 5 mg/kg), the “inflammatory cell infiltrate in the reticular and laminar propria zones” value is on record as “marked reduction”; the “ulcer grade and epithelial repair compared to the vehicle control” value is “marked improvements”. Moreover, the Fpo in [2] came to 0.0%. The inhibition at 3 µM at hERG was -12 ± 4%. Besides, in data set [3], the IC50 is over 3000 nM. In data set [4], the “number of metabolites formed in hepatocytes” value is reported as 9 and the “products connected to metabolism at the naphthalene moiety” value is reported as “no products were noted”.
